Results as given in patent US20240358693A1, “METHODS OF TREATING PAIN” (Aisa Pharma, Inc., priority 2023, published 2024).

Tested on: participants with SSc-RP
Assay: Scleroderma Health Assessment Questionnaire (SHAQ): disability indices and visual analog scales
Format: in vivo, human
Summary of the method: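 Participants with SSc-RP completed the SHAQ at screening and each in-clinic visit. Standard and alternative disability indices (eight categories, 0–3; standard adjusts for aids/assistance) plus Raynaud's VAS on interference over the past 7 days. Reported as absolute change from baseline to end of each dosing period.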

[1] = Cilnidipine 20 mg, PP Population Part A, SSc patients
[2] = Day 12, Cilnidipine 10 mg (N = 4), Patients with Diagnosis of SSc, PP Population Part A
[3] = Day 12, Cilnidipine 20 mg (N = 4), Patients with Diagnosis of SSc, PP Population Part A
[4] = Day 12, Modified ITT, Part A, dose Cilnidipine 10 mg, Tadalafil 5 mg, or 10 mg + 5 mg
[5] = Day 12, Modified ITT, Part A, dose Cilnidipine 20 mg, or 20 mg + Tadalafil 5 mg

`COCCOC(=O)C1=C(C)NC(C)=C(C(=O)OC/C=C/c2ccccc2)C1c1cccc([N+](=O)[O-])c1` (stereo not shown) [Cilnidipine, cilnidipine] was tested, and the “SHAQ Visual Analogue Scale - Finger Ulcers, In-Clinic Visit (Day 12), Mean” value [1] was 0.650, the “SHAQ Visual Analogue Scale - Finger Ulcers, In-Clinic Visit (Day 12), Median” value [1] was 0.350 and the “SHAQ Visual Analogue Scale - Intestinal Problems, In-Clinic Visit (Day 12), Mean” value [1] was 0.850. For the same compound, the “SHAQ Visual Analogue Scale - Intestinal Problems, In-Clinic Visit (Day 12), Median” value [1] was 0.650, the “SHAQ Visual Analogue Scale - Overall Disease Severity, In-Clinic Visit (Day 12), Mean” value [1] was 1.125 and the “SHAQ Visual Analogue Scale - Overall Disease Severity, In-Clinic Visit (Day 12), Median” value [1] was 1.300. For the same compound, the “SHAQ Visual Analogue Scale - Pain, In-Clinic Visit (Day 12), Mean” value [1] was 1.875, the “SHAQ Visual Analogue Scale - Pain, In-Clinic Visit (Day 12), Median” value [1] was 1.400 and the “SHAQ Visual Analogue Scale - Raynaud's, In-Clinic Visit (Day 12), Mean” value [1] was 1.875. The “SHAQ Visual Analogue Scale - Raynaud's, In-Clinic Visit (Day 12), Median” value [1] was 1.250, the “SHAQ Alternative Disability Index, Change from Baseline, Mean” value [2] was 0.063 and the “SHAQ Alternative Disability Index, Change from Baseline, Median” value [2] was 0.000. For the same compound, the “SHAQ Alternative Disability Index, Percent Change from Baseline, Mean” value [2] was 15.87%, the “SHAQ Alternative Disability Index, Percent Change from Baseline, Median” value [2] was 15.87% and the “SHAQ Standard Disability Index, Change from Baseline, Mean” value [2] was 0.000. For the same compound, the “SHAQ Standard Disability Index, Change from Baseline, Median” value [2] was 0.000, the “SHAQ Standard Disability Index, Percent Change from Baseline, Mean” value [2] was 0.00% and the “SHAQ Standard Disability Index, Percent Change from Baseline, Median” value [2] was 0.00%. For the same compound, the “SHAQ Alternative Disability Index, Change from Baseline, Mean” value [3] was 0.000, the “SHAQ Alternative Disability Index, Change from Baseline, Median” value [3] was −0.063 and the “SHAQ Alternative Disability Index, Percent Change from Baseline, Mean” value [3] was 5.56%. The “SHAQ Alternative Disability Index, Percent Change from Baseline, Median” value [3] was −33.33%, the “SHAQ Standard Disability Index, Change from Baseline, Mean” value [3] was −0.063 and the “SHAQ Standard Disability Index, Change from Baseline, Median” value [3] was −0.063. For the same compound, the “SHAQ Standard Disability Index, Percent Change from Baseline, Mean” value [3] was −26.67%, the “SHAQ Standard Disability Index, Percent Change from Baseline, Median” value [3] was −33.33% and the “SHAQ Alternative Disability Index, Change from Baseline, Mean” value [4] was 0.063. The “SHAQ Alternative Disability Index, Change from Baseline, Median” value [4] was 0.000, the “SHAQ Alternative Disability Index, Percent Change from Baseline, Mean” value [4] was 15.87% and the “SHAQ Alternative Disability Index, Percent Change from Baseline, Median” value [4] was 15.87%. The “SHAQ Finger Ulcers, Change from Baseline, Mean” value [4] was −0.425, the “SHAQ Finger Ulcers, Change from Baseline, Median” value [4] was −0.350 and the “SHAQ Finger Ulcers, Percent Change from Baseline, Mean” value [4] was −69.44%. The “SHAQ Finger Ulcers, Percent Change from Baseline, Median” value [4] was −69.44%, the “SHAQ Standard Disability Index, Change from Baseline, Mean” value [4] was 0.0 and the “SHAQ Standard Disability Index, Change from Baseline, Median” value [4] was 0.000. For the same compound, the “SHAQ Standard Disability Index, Percent Change from Baseline, Mean” value [4] was 0.0%, the “SHAQ Standard Disability Index, Percent Change from Baseline, Median” value [4] was 0.00% and the “SHAQ Visual Analog Scale-Breathing Problems, Change from Baseline, Mean” value [4] was −0.300. For the same compound, the “SHAQ Visual Analog Scale-Breathing Problems, Change from Baseline, Median” value [4] was 0.000, the “SHAQ Visual Analog Scale-Breathing Problems, Percent Change from Baseline, Mean” value [4] was −16.00% and the “SHAQ Visual Analog Scale-Breathing Problems, Percent Change from Baseline, Median” value [4] was −16.00%. For the same compound, the “SHAQ Visual Analog Scale-Intestinal Problems, Change from Baseline, Mean” value [4] was −1.875, the “SHAQ Visual Analog Scale-Intestinal Problems, Change from Baseline, Median” value [4] was −1.550 and the “SHAQ Visual Analog Scale-Intestinal Problems, Percent Change from Baseline, Mean” value [4] was −77.37%. For the same compound, the “SHAQ Visual Analog Scale-Intestinal Problems, Percent Change from Baseline, Median” value [4] was −88.00%, the “SHAQ Visual Analog Scale-Pain, Change from Baseline, Mean” value [4] was −0.100 and the “SHAQ Visual Analog Scale-Pain, Change from Baseline, Median” value [4] was 0.000. The “SHAQ Visual Analog Scale-Pain, Percent Change from Baseline, Mean” value [4] was −9.88%, the “SHAQ Visual Analog Scale-Pain, Percent Change from Baseline, Median” value [4] was 0.00% and the “SHAQ Visual Analog Scale-Raynaud's, Change from Baseline, Mean” value [4] was 0.325. For the same compound, the “SHAQ Visual Analog Scale-Raynaud's, Change from Baseline, Median” value [4] was 0.350, the “SHAQ Visual Analog Scale-Raynaud's, Percent Change from Baseline, Mean” value [4] was 11.36% and the “SHAQ Visual Analog Scale-Raynaud's, Percent Change from Baseline, Median” value [4] was −2.27%. For the same compound, the “SHAQ Alternative Disability Index, Change from Baseline, Mean” value [5] was −0.083, the “SHAQ Alternative Disability Index, Change from Baseline, Median” value [5] was −0.125 and the “SHAQ Alternative Disability Index, Percent Change from Baseline, Mean” value [5] was −41.67%. For the same compound, the “SHAQ Alternative Disability Index, Percent Change from Baseline, Median” value [5] was −41.67%, the “SHAQ Finger Ulcers, Change from Baseline, Mean” value [5] was −0.933 and the “SHAQ Finger Ulcers, Change from Baseline, Median” value [5] was 0.000. For the same compound, the “SHAQ Finger Ulcers, Percent Change from Baseline, Mean” value [5] was 35.29%.
